Tests used:
Assay type in all cases: cell-based
Aurora B = target: T1, Aurora B (Homo sapiens, UniProt Q96GD4); assay: Aurora B cell mechanistic assay (HT-29), phospho-Histone H3 (Ser10) ELISA; conditions: HT-29 cell line; inhibition of phospho-Histone H3 (Ser10); at least duplicate experiments (italicized if single experiment); read-out: Aurora B mech IC50
T1 construct: HT-29 cells grown in complete growth media
Description: The cellular activity of the compounds of the present invention against Aurora B may be determined by the following procedure. HT-29 cells grown in complete growth media (McCoy's 5A, 10% FCS, 1% L-glutamine) were plated into wells of a 96 well tissue culture plate (Falcon 3072) at a cell density of 4×10^4 cells/0.09 ml media/well. Cells were subsequently incubated overnight in a 5% CO2 humidified 37° C. incubator. The following day 10 μl of a 10× stock of test compound serially diluted in media was added to the cells and incubated for 1 h at 37° C. at which time Calyculin A (Cell Signaling #9902) was added at a concentration of 100 nM and cells incubated for an additional 30 minutes in a 5% CO2 humidified 37° C. incubator. Media was then aspirated and cells lysed using a Triton based lysis buffer. Lysates were transferred to a pre-coated anti-Histone H3 antibody coated plate supplied by Cell Signaling in their PathScan phospho-Histone H3 (Ser10) ELISA kit (#7155). After an overnight incubation with lysate the ELISA was continued following the manufacturer's instructions. Signal was measured on a Wallac Victor plate reader at 450 nm. DMSO control treated cells served as 100% signal and an Aurora B kinase inhibitor served as 100% inhibition. The percent inhibition of phospho-Histone H3 (Ser10) was expressed as % control. IC50 values were calculated from the percent control data using a standard four-parameter model.
The IC50 values of exemplary compounds of the present invention determined in a Aurora B cell mechanistic assay using the HT-29 cell line according to the procedures described herein in at least duplicate experiments are abbreviated as follows and are shown in Table 4: A, IC50≦0.05 μM; B, 0.05 μM<IC50≦0.2 μM; C, 0.2 μM<IC50≦1 μM; D, IC50>1 μM; ND, not determined. If only data from single experiments are available, the abbreviations are italicized. The Example # of Table 4 corresponds to the compound example number as illustrated in the Examples section.

Karpas-299 cells = assay: Karpas-299 cell proliferation assay (CellTiter-Glo); conditions: Homo sapiens, 72 h; Karpas-299 cell line (NPM-ALK); 3 days incubation; at least duplicate experiments; read-out: Prolif. IC50
MKN45 cells = assay: MKN45 cell proliferation assay (CellTiter-Glo); conditions: Homo sapiens, MKN-45, 72 h; MKN45 cell line; 3 days incubation; at least duplicate experiments; read-out: Prolif. IC50
RON = target: T2, RON (Homo sapiens, UniProt Q04912); assay: sfRON cell mechanistic assay (HeLa), phosphorylated RON ELISA; conditions: HeLa cells transfected with sfRON; inhibition of phosphorylated RON; four hours incubation; at least duplicate experiments; read-out: sfRON mech IC50
T2 sequence (Q04912 913-1400): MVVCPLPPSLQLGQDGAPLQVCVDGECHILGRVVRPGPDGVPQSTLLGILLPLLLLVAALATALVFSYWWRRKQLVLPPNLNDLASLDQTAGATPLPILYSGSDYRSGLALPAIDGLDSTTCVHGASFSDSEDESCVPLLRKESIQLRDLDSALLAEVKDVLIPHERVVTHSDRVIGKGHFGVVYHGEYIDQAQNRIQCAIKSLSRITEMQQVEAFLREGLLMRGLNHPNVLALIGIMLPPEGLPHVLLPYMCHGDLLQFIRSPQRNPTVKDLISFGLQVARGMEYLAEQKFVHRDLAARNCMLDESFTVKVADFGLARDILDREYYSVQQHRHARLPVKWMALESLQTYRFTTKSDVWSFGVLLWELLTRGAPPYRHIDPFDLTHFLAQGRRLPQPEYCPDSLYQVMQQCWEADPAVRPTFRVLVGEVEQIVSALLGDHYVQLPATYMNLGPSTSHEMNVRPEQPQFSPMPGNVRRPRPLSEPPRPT
Procedure, shortened: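 HeLa cells transiently transfected with sfRON plasmid, then exposed 4 h at 37 °C to a 6-point compound series (typically 10 μM to 3 nM, 0.5% DMSO). Phospho-RON (pY1238/1239) in lysates measured by sandwich ELISA with luminescence. IC50 from 4-parameter fit of percent-of-DMSO-control data, at least duplicate runs.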

T1 sequence (Q96GD4 whole entry): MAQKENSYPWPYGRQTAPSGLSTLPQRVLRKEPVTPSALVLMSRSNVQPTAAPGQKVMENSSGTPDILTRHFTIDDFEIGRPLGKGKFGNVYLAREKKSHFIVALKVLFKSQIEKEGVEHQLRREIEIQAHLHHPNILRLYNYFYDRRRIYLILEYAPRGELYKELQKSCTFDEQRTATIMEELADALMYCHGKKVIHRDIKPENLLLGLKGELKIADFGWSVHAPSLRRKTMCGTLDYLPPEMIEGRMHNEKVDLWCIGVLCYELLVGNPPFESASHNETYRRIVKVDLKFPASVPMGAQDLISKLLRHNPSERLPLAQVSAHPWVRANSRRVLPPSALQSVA

| IC50 (Aurora B) [µM] | IC50 (Karpas-299 cells) [µM] | IC50 (MKN45 cells) [µM] | IC50 (RON) [µM] | SMILES |
| --- | --- | --- | --- | --- |
| > 1 | 0.2 to 1 | > 1 |  | Cc1c(-c2cnc3[nH]cc([C@H](C)c4c(OC[C@H](O)CO)ccc(F)c4Cl)c3c2)cnn1C [Example 127, (2R)-3-(3-Chloro-2-{(1S)-1-[5-(1,5-dimethyl-1H-pyrazol-4-yl)-1H-pyrrolo[2,3-b]pyridin-3-yl]ethyl}-4-fluorophenoxy)propane-1,2-diol] |
| > 1 | 0.2 to 1 | > 1 |  | Cc1c(-c2cnc3[nH]cc([C@H](C)c4c(OC[C@@H](O)CO)ccc(F)c4Cl)c3c2)cnn1C [Example 68, (2S)-3-(3-Chloro-2-{(1S)-1-[5-(1,5-dimethyl-1H-pyrazol-4-yl)-1H-pyrrolo[2,3-b]pyridin-3-yl]ethyl}-4-fluorophenoxy)propane-1,2-diol] |
| > 1 | 0.2 to 1 | 0.2 to 1 |  | COc1ccc(F)c(Cl)c1[C@@H](C)c1c[nH]c2ncc(-c3cn(CC(C)(C)O)nc3C(F)(F)F)cc12 [Example 30, 1-[4-{3-[(1S)-1-(2-Chloro-3-fluoro-6-methoxyphenyl)ethyl]-1H-pyrrolo[2,3-b]pyridin-5-yl}-3-(trifluoromethyl)-1H-pyrazol-1-yl]-2-methylpropan-2-ol] |
| > 1 | > 1 | > 1 |  | COc1ccc(F)c(Cl)c1[C@@H](C)c1c[nH]c2ncc(-c3cn(C)nc3C(F)(F)F)cc12 [Example 29, 3-[(1S)-1-(2-Chloro-3-fluoro-6-methoxyphenyl)ethyl]-5-[1-methyl-3-(trifluoromethyl)-1H-pyrazol-4-yl]-1H-pyrrolo[2,3-b]pyridine] |
| > 1 | ≤ 0.05 | ≤ 0.05 |  | CCOc1ccc(F)c(Cl)c1[C@@H](C)c1c[nH]c2ncc(-c3c(C)nn(C[C@@H](O)CO)c3C)cc12 [Example 101, (2R)-3-(4-{3-[(1S)-1-(2-Chloro-6-ethoxy-3-fluorophenyl)ethyl]-1H-pyrrolo[2,3-b]pyridin-5-yl}-3,5-dimethyl-1H-pyrazol-1-yl)propane-1,2-diol] |
| > 1 | 0.2 to 1 |  | > 1 | COc1ccc(F)c(Cl)c1[C@@H](C)c1c[nH]c2ncc(-c3cnn(C)c3Cl)cc12 [Example 59, 3-[(1S)-1-(2-Chloro-3-fluoro-6-methoxyphenyl)ethyl]-5-(5-chloro-1-methyl-1H-pyrazol-4-yl)-1H-pyrrolo[2,3-b]pyridine] |
| 0.2 to 1 | ≤ 0.05 | ≤ 0.05 |  | COc1ccc(F)c(Cl)c1[C@@H](C)c1c[nH]c2ncc(-c3cn(C[C@H](O)CO)nc3C)cc12 [Example 9, (2S)-3-(4-{3-[(1S)-1-(2-Chloro-3-fluoro-6-methoxyphenyl)ethyl]-1H-pyrrolo[2,3-b]pyridin-5-yl}-3-methyl-1H-pyrazol-1-yl)propane-1,2-diol] |

Source: patent US8445510B2, “Fused bicyclic kinase inhibitors” (OSI Pharmaceuticals, LLC, priority 2011, dated 2013)
